One data set has as its system Pseudomonas aeruginosa. Briefly: Antimicrobial activity against Pseudomonas aeruginosa 108;IA is Inactive. The data set is classed as functional, organism-based.
Data set [1] deals with Enterococcus faecalis. In words: Antimicrobial activity against Enterococcus faecalis;IA is Inactive. It counts as functional, organism-based.
The subject of data set [2] is Staphylococcus aureus. In words: Antimicrobial activity against Staphylococcus aureus;IA is Inactive. The data set is classed as functional, organism-based.
The test system of data set [3] is Proteus mirabilis. In words: The compound has antimicrobial activity against Proteus mirabilis; Active. The data set is classed as functional, organism-based.
The subject of the next data set is Escherichia coli. Briefly: Antimicrobial activity against Escherichia coli;IA is Inactive. The data set is classed as functional, organism-based.
The subject of data set [4] is Proteus mirabilis. In words: Antimicrobial activity against Proteus mirabilis;IA is Inactive. It counts as functional, organism-based.
The subject of a further data set is Klebsiella aerogenes. Briefly: Activity against Enterobacter aerogenes. It counts as functional.
A short description of the next data set: in vivo. To be noted: eutheria.
Data set [5] deals with Enterococcus faecalis. In words: The compound has antimicrobial activity against Enterococcus faecalis; Active. The data set is classed as functional, organism-based.
The subject of data set [6] is Staphylococcus aureus. In words: The compound has antimicrobial activity against Staphylococcus aureus; Active. The data set is classed as functional, organism-based.

Active and inactive are the calls of the source. The rule behind the calls is not given here.

As for `CC1=CC(=C(c2cc(C)c(O)c(CN(CC(=O)O)CC(=O)O)c2)c2ccccc2S(=O)(=O)O)C=C(CN(CC(=O)O)CC(=O)O)C1=O`, the outcome in the data set on Pseudomonas aeruginosa, in the data set with Enterococcus faecalis [1], in the data set with Staphylococcus aureus [2] and in the data set on Escherichia coli was inactive. Also, in the data set with Proteus mirabilis [3], the outcome was Active.

`OCC(O)C(OC1CO1)OC1CO1` (stereo not given): the outcome in the data set on Pseudomonas aeruginosa, in the data set on Enterococcus faecalis [1], in the data set with Staphylococcus aureus [2], with Escherichia coli and in the data set with Proteus mirabilis [4] was inactive.

In the case of `CN1CCN(c2cc3c(cc2F)c(=O)c(C(=O)O)cn3-c2ccc(F)cc2)CC1` [DIFLOXACIN], in the data set on Klebsiella aerogenes, the CMI was 0.19 mg/L.

In the data set with Klebsiella aerogenes, `O=C(O)c1cn(C2CC2)c2cc(N3CCNCC3)c(F)cc2c1=O` [CIPROFLOXACIN] returned a CMI of 0.03 mg/L.

One may read the bioavailability as dose-corrected exposure relative to a reference, in per cent. A high value points to much systemic uptake. The molecule `CC1CN(c2cc3c(cc2F)c(=O)c(C(=O)O)cn3-c2ccc(F)cc2F)CCN1` (stereo not given) [TEMAFLOXACIN] registered a CMI in the data set on Klebsiella aerogenes of 0.16 mg/L. Also, the bioavailability in the data set “in vivo” was found to be 90%.

The molecule `NC1CCN(c2nc3c(cc2F)c(=O)c(C(=O)O)cn3-c2ccccc2F)C1` (stereo not given) [TUSOFLOXACINE] gave a CMI in the data set with Klebsiella aerogenes of 0.05 mg/L.

With `CC1COc2c(N3CCN(C)CC3)c(F)cc3c(=O)c(C(=O)O)cn1c23` (stereo not given) [OFLOXACIN], the CMI in the data set on Klebsiella aerogenes was 0.12 mg/L. Further, in the data set “in vivo”, the bioavailability came to 94.4%.

Molecule `CCn1cc(C(=O)O)c(=O)c2cc(F)c(N3CCN(C)CC3)cc21` [PEFLOXACIN] yielded a CMI in the data set on Klebsiella aerogenes of 0.12 mg/L. Further, the bioavailability in “in vivo” came to 91.2%.

With `CCn1cc(C(=O)O)c(=O)c2cc(F)c(N3CCNCC3)cc21` [NORFLOXACIN], the CMI in the data set with Klebsiella aerogenes was determined as 0.1 mg/L. In the data set “in vivo”, this molecule displayed a bioavailability of 63%.

Regarding `CCn1cc(C(=O)O)c(=O)c2cnc(N3CCNCC3)nc21` [PIPEMIDIC ACID], the CMI in the data set with Klebsiella aerogenes is 2 mg/L.

With `CNn1cc(C(=O)O)c(=O)c2cc(F)c(N3CCN(C)CC3)cc21` [AMIFLOXACIN], the CMI in the data set on Klebsiella aerogenes was found to be 0.11 mg/L.

`CCn1cc(C(=O)O)c(=O)c2ccc(C)nc21` [NALIDIXIC ACID]: the result with Pseudomonas aeruginosa and in the data set with Escherichia coli was inactive. In addition, the result in the data set with Proteus mirabilis [3], with Enterococcus faecalis [5] and in the data set on Staphylococcus aureus [6] was Active. Besides, the CMI in the data set with Klebsiella aerogenes was found to be 3 mg/L. The molecule further gave a bioavailability in the data set “in vivo” of 60%.

In the data set on Klebsiella aerogenes, `CCn1cc(C(=O)O)c(=O)c2cc3c(cc21)OCO3` [OXOLINIC ACID] displayed a CMI of 0.5 mg/L.

`CCn1cc(C(=O)O)c(=O)c2cc(F)c(N3CCNCC3)nc21` [ENOXACIN] came in with a CMI in the data set on Klebsiella aerogenes of 0.16 mg/L. Also, the bioavailability in the data set “in vivo” was determined as 87.4%.

As for `Nc1ccc(C(=O)Nc2ccc3c(O)c(/N=N/c4ccc(C(=O)Nc5ccc(/N=N/c6ccc7cc(S(=O)(=O)O)cc(S(=O)(=O)O)c7c6)c(O)c5)cc4)c(S(=O)(=O)O)cc3c2)cc1`, the result in the data set with Pseudomonas aeruginosa, in the data set with Enterococcus faecalis [1], in the data set on Staphylococcus aureus [2], in the data set on Escherichia coli and in the data set with Proteus mirabilis [4] was inactive.

Take `CCn1cc(C(=O)O)c(=O)c2cc(F)c(N3CCNC(C)C3)c(F)c21` (stereo not given) [LOMEFLOXACIN]: the CMI with Klebsiella aerogenes amounted to 0.16 mg/L. Besides, the bioavailability in the data set “in vivo” came to 98%.

Values taken from ChEMBL document CHEMBL1136155, “Search compounds with antimicrobial activity by applying molecular topology to selected quinolones” (Bioorg Med Chem Lett, 2003).
